The values that follow are results of earlier work, collected in patent US20190151293A1, “PHARMACEUTICAL COMPOSITION COMPRISING A NON-PURINE SELECTIVE INHIBITOR OF XANTHINE OXIDASE AND METHOD FOR THE PREPARATION THEREOF” (PHARMATHEN S.A., priority 2016, published 2019).

Read-outs that look alike come from different tables or passages of the source.

The subject of data set [1] is other enzymes involved in purine or pyrimidine metabolism. Conditions: at therapeutic concentrations.
Data set [2] concerns the target xanthine oxidase (XO) (Homo sapiens, UniProt P47989). Conditions: oxidised and reduced forms of XO.

Chain of xanthine oxidase (XO) (P47989 whole entry): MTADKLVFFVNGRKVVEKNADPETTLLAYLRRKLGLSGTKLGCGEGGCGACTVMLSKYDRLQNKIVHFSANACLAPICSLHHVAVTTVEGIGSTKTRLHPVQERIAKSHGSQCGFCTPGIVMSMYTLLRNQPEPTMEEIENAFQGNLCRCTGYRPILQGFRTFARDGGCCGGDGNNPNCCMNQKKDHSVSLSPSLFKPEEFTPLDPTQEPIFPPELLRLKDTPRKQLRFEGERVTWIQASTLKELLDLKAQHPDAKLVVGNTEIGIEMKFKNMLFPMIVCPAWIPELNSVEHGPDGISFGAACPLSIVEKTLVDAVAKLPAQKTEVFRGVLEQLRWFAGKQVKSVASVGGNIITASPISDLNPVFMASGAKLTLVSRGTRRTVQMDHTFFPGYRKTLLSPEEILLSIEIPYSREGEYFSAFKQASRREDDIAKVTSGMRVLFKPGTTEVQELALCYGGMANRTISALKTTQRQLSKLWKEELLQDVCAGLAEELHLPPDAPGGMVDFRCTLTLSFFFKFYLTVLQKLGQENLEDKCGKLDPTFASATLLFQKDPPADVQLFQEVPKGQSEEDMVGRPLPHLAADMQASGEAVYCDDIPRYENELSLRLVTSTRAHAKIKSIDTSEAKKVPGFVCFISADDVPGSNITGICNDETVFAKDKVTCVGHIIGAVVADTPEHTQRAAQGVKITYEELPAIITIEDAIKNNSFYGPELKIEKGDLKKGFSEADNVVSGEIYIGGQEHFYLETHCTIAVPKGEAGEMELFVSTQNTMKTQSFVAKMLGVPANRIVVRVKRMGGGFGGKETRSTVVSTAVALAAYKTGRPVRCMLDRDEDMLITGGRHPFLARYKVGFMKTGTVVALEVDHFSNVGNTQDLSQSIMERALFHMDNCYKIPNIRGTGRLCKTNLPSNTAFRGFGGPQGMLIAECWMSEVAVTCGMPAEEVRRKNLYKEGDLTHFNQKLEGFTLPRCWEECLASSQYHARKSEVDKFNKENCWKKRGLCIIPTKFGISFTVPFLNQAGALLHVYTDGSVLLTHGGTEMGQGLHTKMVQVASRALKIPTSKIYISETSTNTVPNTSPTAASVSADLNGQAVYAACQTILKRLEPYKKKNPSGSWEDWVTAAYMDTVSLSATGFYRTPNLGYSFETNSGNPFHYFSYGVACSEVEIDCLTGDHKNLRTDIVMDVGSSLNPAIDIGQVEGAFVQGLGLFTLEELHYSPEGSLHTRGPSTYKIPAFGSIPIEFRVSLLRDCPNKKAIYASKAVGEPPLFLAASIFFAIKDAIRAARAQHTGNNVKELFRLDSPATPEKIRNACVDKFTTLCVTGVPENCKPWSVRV

Regarding `Cc1nc(-c2ccc(OCC(C)C)c(C#N)c2)sc1C(=O)O` [Febuxostat, 2-(3-cyano-4-isobutoxyphenyl)-4-methyl-1,3-thiazole-5-carboxylic acid], the “Solubility, dependence on pH” value (higher in alkalic media) is on record as “pH dependent”. The Solubility result is given as “freely soluble” (in dimethylformamide), “soluble” (in dimethylsulfoxide), “sparingly soluble” (in ethanol) and “practically insoluble” (in water). For the same molecule, the “Inhibition of other enzymes involved in purine or pyrimidine metabolism” value in data set [1] is recorded as “does not inhibit”. Moreover, in data set [2], the “Inhibition of XO” value is “inhibit both the oxidised and reduced forms of XO”.
In the case of `Cc1nc(-c2ccc(OCC(C)C)c(C#N)c2)sc1C(=O)O` [Form C], the “Solubility of the crystal form, in words” value was “good solubility”.
